Results published in patent US11708319B2, “Biphenyl amides with modified ether groups as HSP90 inhibitors and HSP70 inducers” (THE UNIVERSITY OF KANSAS, priority 2014, dated 2023).
“Also recorded” adds a separate entry of the source.

Assays:
[1] = system: Hsp70 promoter (1.5 kb region upstream of the start codon of the human HSPA1A gene) in 50B11 cells; experiment: Luciferase reporter assay assessing Hsp70 induction; format: cell-based; details: for Hsp70 induction (luciferase), Mean: 50B11 cells treated 16 hrs, DMSO (negative control) assigned a value of 100
Description: The luciferase reporter assay was performed using a 1.5 kb region upstream of the start codon of the human HSPA1A gene to drive luciferase expression as previously described. 50B11 cells (Chen, et al., 2007) were grown in 10 cm dishes in maintenance medium and the cells were transfected using lipofectamine. Twenty four hour after transfection, the cells were re-seeded into 24 well plates at a density of 2×10^5 cells per well. After a 6 hrs period to permit attachment, the cells were treated with the indicated compounds for 16 hrs. Luciferase activity was assessed and normalized to the total protein concentration of each well.

[2] = system: Hsp70 protein expression in 50B11 cells; experiment: Immunoblot analysis of Hsp70 protein expression; format: cell-based; details: 24 hr, 1 μM, FIGS. 3A & 3B
Description: FIGS. 3A & 3B show the induction of Hsp70 protein expression by some of the compounds described herein. […] In the immunoblot analysis, 50B11 cells were treated for 24 hr with 1 μM of the indicated analogs or 250 nM geldanamycin (GDA) as a positive control. […] Results are mean±standard error of the mean (SEM) (n=6). […] The remaining para-substituted and ortho-substituted compounds were similarly effective.
50B11 cells were treated with the indicated compounds for 24 hrs and were scraped into lysis buffer containing 50 mM Tris-HCl, pH 7.4, 150 mM NaCl, 1 mM EDTA, 1% NP-40, 0.5 mM sodium orthovandate, 40 mM NaF, 10 mM β-glycerophosphate, and Complete Protease Inhibitors (Roche Diagnostics). After 15 minutes on ice, the lysates were sonicated then centrifuged at 10,000×g for 10 min at 4° C. The protein concentration of the supernatant was estimated using a Bio-Rad protein assay and bovine serum albumin as the standard. Following SDS-PAGE, the proteins were transferred to nitrocellulose and the membrane incubated with 5% non-fat dry milk in phosphate buffered saline containing 0.1% Tween 20 (PBST) for 1-2 hrs at room temperature. The blots were probed with primary antibodies recognizing Hsp70 or R-actin at 4° C. overnight. The membranes were washed with PBST and subsequently incubated with HRP-conjugated secondary antibodies and immunoreactive proteins were visualized using chemiluminescence detection (GE Healthcare Life Sciences, Little Chalfont, Buckinghamshire, UK). The films were digitally scanned and densitometrically analyzed using ImageJ (NIH) software. Client protein degradation in MCF7 cells was performed as previously described (Urban, et al., 2010).

50B11 cells = experiment: Mitochondrial bioenergetic assessment (XF96 extracellular flux analyzer, OCR and ECAR); format: cell-based; details: 24 hrs, FIG. 4
Description: 50B11 cells were treated for 24 hr with DMSO (1), 10 nM (2,6,10), 100 nM (3,7,11), 500 nM (4,8,12) or 1,000 nM (5,9,13) of compounds 74 (2-5), 75 (6-9) or 59 (10-13). Mitochondrial respiration was measured in the intact cells using an XF96 extracellular flux analyzer that provides concurrent measures of mitochondrial oxygen consumption rate (OCR) and extracellular acidification rate (ECAR) as an indication of glycolytic activity. Results are plotted OCR versus ECAR. The net effect of the drugs on oxidative phosphorylation and glycolysis is indicated in each quadrant. Results are mean±standard error of the mean (SEM) (n=6).
Oxygen consumption rate (OCR) was assessed in the 50B11 transformed sensory neuron cell line, using an XF96 Extracellular Flux Analyzer (Seahorse Biosciences, North Billerica, Mass.). 50B11 cells were seeded into the 96 well plates at 40,000 cells per well and maintained in high glucose DMEM supplemented with 10% fetal bovine serum (Atlas Biologics, Fort Collins Colo.), 5 μg/ml blasticidin and antibiotics at 37° C. The maintenance media was changed to serum free unbuffered DMEM supplemented with 1 mM pyruvate and 5.5 mM D-glucose and the cells incubated at 37° C. in room air for one hour before starting the assay. After introducing the plate into the XF96 analyzer, the basal oxygen consumption rate (OCR) was measured prior to the addition of 1 μg/ml oligomycin to inhibit the ATP synthase to measure the portion of the basal OCR that was coupled to ATP synthesis; residual OCR after oligomycin treatment is from uncoupled respiration (proton leak). […]
After the respiratory measures, the cells were harvested and the protein content of each well determined using a Bradford protein assay. OCR values were normalized to the total protein content of each well and ATP-linked respiration, proton leak, maximal respiratory capacity, spare respiratory capacity and respiratory control ratio were determined as described (Brand and Nicholls, 2011; Chowdhury, et al., 2012)

[3] = molecular target: Hsp90 C-terminus nucleotide binding pocket; details: low affinity; cited from earlier work
[4] = 10 nM to 1,000 nM, FIG. 2, Table 2

Row | SMILES | Hsp70 induction in luciferase assay (in words) [1, 4] | Hsp70 protein expression (immunoblot, in words) [2] | Hsp70 induction (luciferase), Mean ([1]; 10 nM) | Hsp70 induction (luciferase), Mean ([1]; 100 nM) | Hsp70 induction (luciferase), Mean ([1]; 500 nM) | Hsp70 induction (luciferase), Mean ([1]; 1000 nM) | further results
1 | CC(=O)NCCc1ccc(OC2CCC(OCc3ccc(Cl)cc3)[C@@H](O)[C@H]2O)cc1-c1cccc(F)c1 (stereo partly drawn) [Compound 75, N-(2-(5-(((2R,3S)-4-((4-chlorobenzyl)oxy)-2,3-dihydroxycyclohexyl)oxy)-3′-fluoro-[1,1′-biphenyl]-2-yl)ethyl)acetamide] | good induction of Hsp70 | equivalent levels of Hsp70 induction; also recorded: increased Hsp70 protein expression | – | – | – | – | Oxidative phosphorylation and glycolysis (OCR versus ECAR, in words) (50B11 cells; 10 nM to 1,000 nM): more effective at dose dependently increasing oxidative phosphorylation and glycolysis; Cellular respiration (in words) (50B11 cells): increased cellular respiration
2 | CC(=O)Nc1cc2ccc(OC3CCC(OCc4ccccc4)CC3)c(C)c2oc1=O (centres unmarked) [Compound 77] | – | – | 146.19 | 106.40 | 102.93 | 100.29 | –
3 | COc1ccccc1COC1CCC(Oc2ccc3cc(NC(C)=O)c(=O)oc3c2C)CC1 (centres unmarked) [Compound 80, N-(7-((4-((2-methoxybenzyl)oxy)cyclohexyl)oxy)-8-methyl-2-oxo-2H-chromen-3-yl)acetamide] | – | – | 130.87 | 151.51 | 129.16 | 142.77 | –
4 | CC(=O)Nc1cc2ccc(OC3CCC(OCc4ccc(Cl)cc4)CC3)c(C)c2oc1=O (centres unmarked) [Compound 78] | – | – | 85.73 | 94.52 | 97.39 | 105.69 | –
5 | CC(=O)NCCc1ccc(OC2CCC(OCc3ccccc3)CC2)cc1-c1cccc(F)c1 (centres unmarked) [Compound 44, N-(2-(5-((4-(benzyloxy)cyclohexyl)oxy)-3′-fluoro-[1,1′-biphenyl]-2yl)ethyl)acetamide] | – | induced Hsp70 protein expression | – | – | – | – | Hsp70 induction in luciferase assay (in words) ([1]; 500 nM and 1,000 nM, FIG. 1): highest level of Hsp70 expression
6 | CC(=O)Nc1cc2ccc(OC3CCC(OCc4ccccc4Br)CC3)c(C)c2oc1=O (centres unmarked) [Compound 79, N-(7-((4-((2-bromobenzyl)oxy)cyclohexyl)oxy)-8-methyl-2-oxo-2H-chromen-3-yl)acetamide] | – | – | 105.83 | 102.65 | 97.09 | 91.42 | –
7 | CO[C@@H]1[C@@H](OC(N)=O)[C@@H](O)[C@H](Oc2ccc3c(O)c(NC(=O)c4ccc(O)c(CC=C(C)C)c4)c(=O)oc3c2C)OC1(C)C [novobiocin] | – | – | – | – | – | – | IC50 [3]: ~700 µM
8 | CC(=O)NCCc1ccc(OC2C=CC(OCc3ccc(Cl)cc3)CC2)cc1-c1cccc(F)c1 (centres unmarked) [Compound 74] | – | equivalent levels of Hsp70 induction | – | – | – | – | –
9 | CC(=O)NCCc1ccc(OC2CCC(OCc3ccc(Cl)cc3)CC2)cc1-c1cccc(F)c1 (centres unmarked) [Compound 59, N-(2-(5-((4-((4-chlorobenzyl)oxy)cyclohexyl)oxy)-3′-fluoro-[1,1′-biphenyl]-2-yl)ethyl)acetamide] | robust induction of luciferase activity | less effective | – | – | – | – | Cellular respiration (in words) (50B11 cells): decreased cellular respiration
10 | CC(=O)NCCc1ccc(O)cc1-c1cccc(F)c1 [Compound 20] | inactive | – | 88.07 | 87.40 | 93.87 | 96.56 | –
